Test results as given in the supplement of paper PMC10307832.

Experiments:
Assay in all cases: relative viability (nuclei count vs DMSO), 5 days (fraction); higher = more cells survive
Nelarabine + Linsitinib = compound: COc1nc(N)nc2c1ncn2[C@@H]1O[C@H](CO)[C@@H](O)[C@@H]1O [Nelarabine] + C[C@]1(O)C[C@@H](c2nc(-c3ccc4ccc(-c5ccccc5)nc4c3)c3c(N)nccn32)C1 [Linsitinib] (partner 1 µM)
Method in brief: (§1)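 Lung cancer cell lines in 1536-well plates got either a single drug or a fixed anchor-drug dose together with five library-drug doses (not always all listed) in √10 steps, by pin tool, on the day after seeding. Nuclei were counted after 5 days, and relative viability is the treated-to-vehicle ratio of nuclei counts. Values are medians of duplicate plates.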

Nelarabine + AZD7762 = compound: COc1nc(N)nc2c1ncn2[C@@H]1O[C@H](CO)[C@@H](O)[C@@H]1O [Nelarabine] + NC(=O)Nc1cc(-c2cccc(F)c2)sc1C(=O)N[C@H]1CCCNC1 [AZD7762] (partner 0.2 µM)
Method in brief: as §1

Adavosertib + Bortezomib = compound: C=CCn1c(=O)c2cnc(Nc3ccc(N4CCN(C)CC4)cc3)nc2n1-c1cccc(C(C)(C)O)n1 [Adavosertib] + CC(C)C[C@H](NC(=O)[C@H](Cc1ccccc1)NC(=O)c1cnccn1)B(O)O [Bortezomib] (partner 0.002 µM)
Method in brief: as §1

Nelarabine + Dasatinib = compound: COc1nc(N)nc2c1ncn2[C@@H]1O[C@H](CO)[C@@H](O)[C@@H]1O [Nelarabine] + Cc1nc(Nc2ncc(C(=O)Nc3c(C)cccc3Cl)s2)cc(N2CCN(CCO)CC2)n1 [Dasatinib] (partner 0.075 µM)
Method in brief: as §1

EMC-BAC-2 showed a relative viability (Nelarabine + Linsitinib; first compound 0.01 µM) of 0.958, a relative viability (Nelarabine + Linsitinib; first compound 0.03162 µM) of 0.781 and a relative viability (Nelarabine + Linsitinib; first compound 0.1 µM) of 0.83. For the same cell line, the relative viability (Nelarabine + Linsitinib; first compound 0.3162 µM) was 0.831, the relative viability (Nelarabine + Linsitinib; first compound 1 µM) was 0.859 and the relative viability (Nelarabine + AZD7762; first compound 0.01 µM) was 1.2. The relative viability (Nelarabine + AZD7762; first compound 0.03162 µM) was 1.1, the relative viability (Nelarabine + AZD7762; first compound 0.1 µM) was 1.18 and the relative viability (Nelarabine + AZD7762; first compound 0.3162 µM) was 1.22. It also gave a relative viability (Nelarabine + AZD7762; first compound 1 µM) of 1.17, a relative viability (Adavosertib + Bortezomib; first compound 0.01 µM) of 0.987 and a relative viability (Adavosertib + Bortezomib; first compound 0.03162 µM) of 0.989. The relative viability (Adavosertib + Bortezomib; first compound 0.1 µM) was 1.06, the relative viability (Adavosertib + Bortezomib; first compound 0.3162 µM) was 1.04 and the relative viability (Nelarabine + Dasatinib; first compound 0.01 µM) was 0.409. The relative viability (Nelarabine + Dasatinib; first compound 0.03162 µM) was 0.348, the relative viability (Nelarabine + Dasatinib; first compound 0.1 µM) was 0.304 and the relative viability (Nelarabine + Dasatinib; first compound 0.3162 µM) was 0.374. For the same cell line, the relative viability (Nelarabine + Dasatinib; first compound 1 µM) was 0.356.
